Laboratory results taken from patent publication US20240385173A1, “METHODS AND APPARATUS FOR TESTING IMMUNO-ONCOLOGY DRUGS AND BIOLOGICS USING MICROORGANOSPHERES” (Xilis, Inc., priority 2021, published 2024).
Entries after “also recorded” stand apart in the source; their conditions may differ. Read-outs that look alike come from different tables or passages of the source.

Tests used:
[1] = system: PDX240 bulk organoids and MOSs; assay: Cell viability drug response curves, bulk organoids versus MOSs, PDX240; format: cell-based, human; details: cell viabilities after 3 days of treatment
From the text: In some embodiments, the MOSs may be formed from cell lines grown as part of a Patient Derived Xenograft (PDX). For example, FIGS. 28A-28D illustrate MOSs formed from cultured PDX240 cells. PDX240 cells are a Patient Derived Xenograft (PDX) tumor cell line (numbered 240 based on patient source) that were human tumors grown in immunodeficient mice (PDX) to form in vivo tumors. The xenograft tissue was extracted dissociated, and used to form MOSs as described above. In this example a single cell was included in each MOS as it was formed. […] With progressive time in culture, at least some of the MOSs show the cells dividing and forming structures.
(§1) Organoids were formed from Patient Derived Xenograft cells (including the PDX240 cells described above and a second PDX cell line, PDX19187) and were compared with MOSs formed using the same cells. The organoids were formed using conventional techniques in which a large mass of MATRIGEL in a well or dish was seeded with cells and cultured until growth was confirmed. MOSs were generated from the traditional organoids.
(§2) Both traditional (“bulk”) organoids and the MOSs were then treated with the same drugs (e.g., Oxaliplatin or SN38) and cell viabilities were measured after 3 days of treatment.

[2] = system: MOSs derived from multiple myeloma (MM) bone marrow biopsies; assay: Caspase 3/7 green dye apoptosis assay on multiple myeloma MOSs (Incucyte imaging); format: cell-based, human; details: MM MOSs on day 11, images every 2 hours for 4 days
Protocol: FIGS. 44A and 44B show the efficacy of Lenalidomide and Bortezoid on MOSs derived from multiple myeloma (MM) bone marrow biopsies. MM MOSs (on day 11) were treated with Lenalidomine (5 uM) or Bortezoid (2 nM). Caspase 3/7 green dye was added in the assay to monitor apoptosis. Incucyte images were taken every 2 hours for 4 days. […] If this test were run on, for example, traditional bulk organoids, the results would not be reliable (due to the lack of patient immune cells) leading to uncertainty in the best course of action for patient treatment.

[3] = system: MOSs from biopsy material; assay: Drug effect screen on MOSs generated from biopsy material (Example 3); format: cell-based, human; details: FIGS. 23B, 23C
Protocol: (§3) In a similar set of experiments, MOSs were generated from biopsy material (FIG. 23A), and a drug effect screen was performed using the resulting MOSs. […] Thus, the MOSs correlated strongly with patient response to the standard of care drugs. In this case, the patient endured six months of side effects and toxicities that may have been avoided by the predicted response from the MOSs, indicating (within 7-10 days from the biopsy) that the tumor would not respond to these drugs.

patient tumor = assay: Actual response of the patient's tumor to drug treatment; format: in vivo, human; details: for patient response to treatment: Example 3 patient, treated with both Oxalipalatin and Irinotecan, after 6 months of treatment
Protocol: as §3

[4] = system: tumor MOSs from patient biopsy; assay: Drug screen on tumor MOSs generated from a patient biopsy (Example 2); format: cell-based, human; details: FIG. 22B
[5] = system: PDX19187 bulk organoids and MOSs; format: cell-based, human; details: PDX19187 (also printed PDO19187, PDZ-19187), cell viabilities after 3 days of treatment
Protocol: as §1, §2

traditional cell line = assay: Traditional (2D) cell line dosed with drug; format: cell-based; details: all dose ranges examined; FIG. 22A
From the text: As mentioned above, the MOSs and methods of using them to screen for drug compositions may be used to accurately predict the response of a patient tumor to one or more drug therapies. […] For example, in FIG. 22A-22D, the MOSs, but not a cell line, was able to correlate with patient response.

human liver MOSs = assay: Toxicity assay using human liver MOSs; format: cell-based; details: 10 mM; FIGS. 34A-34B
From the text: Similarly, FIGS. 34A-34B also show toxicity assays using human liver MOSs.

mouse liver MOSs = assay: Toxicity assay using mouse liver MOSs; format: cell-based; details: 10 mM; FIGS. 33A-33B
[6] = system: MOSs derived from pulmonary tumor biopsy; assay: Annexin V apoptosis assay on MOSs derived from a pulmonary tumor biopsy; format: cell-based, human
Protocol: (§4) Assays of the MOSs for these pulmonary and renal tumor biopsies were prepared with an Annexin V marker to indicate cellular apoptosis. […] If this test were run on, for example, traditional bulk organoids, the results would not be meaningful (due to the lack of patient immune cells) leading to uncertainty in the best course of action for patient treatment.
(§5) Assays of the MOSs for this pulmonary tumor biopsy were prepared with an Annexin V marker to indicate cellular apoptosis. […] If this test were run on, for example, traditional bulk organoids, the results would be less accurate (because ESK1 would not be able to reach its target) leading to uncertainty in the best course of action for patient treatment.
as §5, with “apoptosis and Cytolight Red dye to indicate tumor infiltrating lymphocytes (TIIs).” for “apoptosis.”, “(due” for “(because ESK1 would not be able”, “the inability of PBMC to penetrate the traditional bulk organoids)” for “reach its target)”
Assays of the MOSs for this pulmonary tumor biopsy were prepared with an Annexin V marker to indicate cellular apoptosis. […] This is an indication that TIIs can penetrate MOS to kill tumor cells. […]

[7] = system: MOSs derived from renal tumor biopsy; assay: Annexin V apoptosis assay on MOSs derived from a renal tumor biopsy; format: cell-based, human
Protocol: as §4

O=c1[nH]cc(F)c(=O)[nH]1 [5-FU, Fluorouracil]
drug response curves of bulk organoids compared with MOSs (cell viability) [1]: comparable responses

CC(C)C[C@H](NC(=O)[C@H](Cc1ccccc1)NC(=O)c1cnccn1)B(O)O [Bortezoid]
response of MM MOSs in the form of tumor cell apoptosis (Caspase 3/7 green dye) ([2]; 2 nM): does not and not

CCc1c2c(nc3ccc(OC(=O)N4CCC(N5CCCCC5)CC4)cc13)-c1cc3c(c(=O)n1C2)COC(=O)[C@]3(O)CC [Irinotecan]
percent survival of the MOSs in the presence of the drug [3]: lack of effect
patient response to treatment (patient tumor): no response

Nc1cccc2c1CN(C1CCC(=O)NC1=O)C2=O (stereo not drawn) [Lenalidomide]
response of MM MOSs in the form of tumor cell apoptosis (Caspase 3/7 green dye) ([2]; 5 uM): good response
response of MM MOSs in the form of tumor cell apoptosis (Caspase 3/7 green dye) ([2]; 5 uM, listed as Lenalidomine): induces apoptosis

O=C1[O][Pt]2([NH][C@@H]3CCCC[C@H]3[NH]2)[O]C1=O [Oxaliplatin]
cell survival from the tumor MOSs [4]: significant decreases in cell survival
drug response curves of bulk organoids compared with MOSs (cell viability) ([5]; listed as Oxalipalatin): comparable response
effect of drug on traditional cell line (traditional cell line): no effect
percent survival of the MOSs in the presence of the drug [3]: no change in the percent survival
tumor response when patient treated with the drug (patient tumor; Example 2 patient, FIGS. 22C (before) and 22D (post treatment)): responded to treatment
patient response to treatment (patient tumor): no response

CCc1c2c(nc3ccc(O)cc13)-c1cc3c(c(=O)n1C2)COC(=O)[C@]3(O)CC [SN38, 7-Ethyl-10-hydroxy-camptothecin]
drug response curves of bulk organoids compared with MOSs (cell viability) [1]: comparable responses
drug response curves of bulk organoids compared with MOSs (cell viability) [5]: comparable responses

CC(=O)Nc1ccc(O)cc1 [acetaminophen]
effect on tissue in human liver MOSs versus control group (human liver MOSs): significant increase atypical tissue structures (arrows) and debris
effect on tissue in mouse liver MOSs versus control group (mouse liver MOSs): smaller and contains many dead cells

Nivolumab
response of MOSs in the form of tumor cell apoptosis (Annexin V marker) [6]: induces apoptosis; also recorded: good response
response of MOSs in the form of tumor cell apoptosis (Annexin V marker) [7]: induces apoptosis; also recorded: good response
